Test results as given in patent US20100215579A1, “PHEN-NAPHTHALENE AND PHEN-QUINOLINE DERIVATIVES AND THEIR USE FOR BINDING AND IMAGING AMYLOID PLAQUES” (The Trustees of the University of Pennsylvania, priority 2007, published 2010).

How the values were obtained:
[1] = Biodistribution in ICR mice after an iv injection; type: in vivo
Excerpt: Biodistribution in ICR Mice After an iv Injection of [^18F][4-(6-{2-[2-(2-Fluoro-ethoxy)-ethoxy]-ethoxy}-naphthalen-2-yl)-phenyl]-methyl-amine in 1% EtOH/0.1% BSA in Water
(% dose/organ, avg of 3 mice±SD)
(% dose/g, avg of 3 mice±SD)
Biodistribution in ICR Mice After an iv Injection of [^18F]19a in 3% EtOH/0.1% BSA in Water
Biodistribution in ICR Mice After an iv Injection of [^18F]34a in 5% EtOH/0.1% BSA in Water
Biodistribution in ICR Mice After an iv Injection of [^18F]32a in 1% EtOH/0.1% BSA in Water

[2] = Log P (octanol/Na2HPO4 buffer pH 7.4); type: physicochemical; conditions: octanol/0.1 M Na2HPO4 buffer (pH 7.4)
[3] = Blood, 2 min after iv injection
[4] = Blood, 30 min after iv injection
[5] = Bone, 30 min after iv injection
[6] = Brain, 2 min after iv injection
[7] = Brain, 30 min after iv injection
[8] = Heart, 2 min after iv injection
[9] = Heart, 30 min after iv injection
[10] = Kidney, 2 min after iv injection
[11] = Kidney, 30 min after iv injection
[12] = Kidney, 1 hr after iv injection
[13] = Kidney, 2 hr after iv injection
[14] = Liver, 2 min after iv injection
[15] = Liver, 30 min after iv injection
[16] = Lung, 30 min after iv injection
[17] = Muscle, 2 min after iv injection
[18] = Muscle, 30 min after iv injection
[19] = Muscle, 1 hr after iv injection
[20] = Muscle, 2 hr after iv injection
[21] = Skin, 30 min after iv injection
[22] = Spleen, 2 min after iv injection
[23] = Spleen, 30 min after iv injection
[24] = Spleen, 1 hr after iv injection
[25] = Spleen, 2 hr after iv injection

Q: Which “% dose/g” value [1, 3] does the source give for `CN(C)c1ccc(-c2ccc3nc(OCCOCCOCC[18F])ccc3c2)cc1` [[^18F]32a] here?
A: 1.80 ± 0.28 % dose/g

Q: And the “% dose/organ” value [1, 3]?
A: 3.32 ± 0.46 % dose/organ

Q: And the “% dose/g” value [1, 4]?
A: 0.99 ± 0.12 % dose/g

Q: What about the “% dose/organ” value [1, 4] of the same compound?
A: 1.80 ± 0.14 % dose/organ

Q: And the “% dose/g” value ([1]; Blood, 1 hr after iv injection)?
A: 1.37 ± 0.14 % dose/g

Q: And the “% dose/organ” value ([1]; Blood, 1 hr after iv injection)?
A: 2.40 ± 0.19 % dose/organ

Q: What about the “% dose/g” value ([1]; Blood, 2 hr after iv injection) of the same compound?
A: 1.13 ± 0.15 % dose/g

Q: What about the “% dose/organ” value ([1]; Blood, 2 hr after iv injection) of the same compound?
A: 2.00 ± 0.25 % dose/organ

Q: What about the “% dose/g” value ([1]; Bone, 2 min after iv injection) of the same compound?
A: 1.25 ± 0.06 % dose/g

Q: And the “% dose/organ” value ([1]; Bone, 2 min after iv injection)?
A: 4.63 ± 0.32 % dose/organ

Q: And the “% dose/g” value [1, 5]?
A: 0.81 ± 0.11 % dose/g

Q: What about the “% dose/organ” value [1, 5] of the same compound?
A: 2.92 ± 0.27 % dose/organ

Q: And the “% dose/g” value ([1]; Bone, 1 hr after iv injection)?
A: 1.11 ± 0.14 % dose/g

Q: What about the “% dose/organ” value ([1]; Bone, 1 hr after iv injection) of the same compound?
A: 3.91 ± 0.37 % dose/organ

Q: What about the “% dose/g” value ([1]; Bone, 2 hr after iv injection) of the same compound?
A: 1.47 ± 0.27 % dose/g

Q: And the “% dose/organ” value ([1]; Bone, 2 hr after iv injection)?
A: 5.19 ± 0.80 % dose/organ

Q: And the “% dose/g” value [1, 6]?
A: 7.76 ± 1.25 % dose/g

Q: What about the “% dose/organ” value [1, 6] of the same compound?
A: 3.56 ± 0.47 % dose/organ

Q: What about the “% dose/g” value [1, 7] of the same compound?
A: 2.33 ± 0.68 % dose/g

Q: What about the “% dose/organ” value [1, 7] of the same compound?
A: 1.07 ± 0.24 % dose/organ

Q: And the “% dose/g” value ([1]; Brain, 1 hr after iv injection)?
A: 1.92 ± 0.31 % dose/g

Q: What about the “% dose/organ” value ([1]; Brain, 1 hr after iv injection) of the same compound?
A: 0.86 ± 0.14 % dose/organ

Q: What about the “% dose/g” value ([1]; Brain, 2 hr after iv injection) of the same compound?
A: 1.45 ± 0.11 % dose/g

Q: And the “% dose/organ” value ([1]; Brain, 2 hr after iv injection)?
A: 0.66 ± 0.03 % dose/organ

Q: And the “% dose/g” value [1, 8]?
A: 10.1 ± 1.14 % dose/g

Q: What about the “% dose/organ” value [1, 8] of the same compound?
A: 1.36 ± 0.20 % dose/organ

Q: And the “% dose/g” value [1, 9]?
A: 1.99 ± 0.43 % dose/g

Q: What about the “% dose/organ” value [1, 9] of the same compound?
A: 0.26 ± 0.06 % dose/organ

Q: What about the “% dose/g” value ([1]; Heart, 1 hr after iv injection) of the same compound?
A: 2.07 ± 0.23 % dose/g

Q: What about the “% dose/organ” value ([1]; Heart, 1 hr after iv injection) of the same compound?
A: 0.25 ± 0.03 % dose/organ

Q: What about the “% dose/g” value ([1]; Heart, 2 hr after iv injection) of the same compound?
A: 1.28 ± 0.09 % dose/g

Q: What about the “% dose/organ” value ([1]; Heart, 2 hr after iv injection) of the same compound?
A: 0.15 ± 0.01 % dose/organ

Q: And the “% dose/g” value [1, 10]?
A: 13.0 ± 3.04 % dose/g

Q: What about the “% dose/organ” value [1, 10] of the same compound?
A: 5.25 ± 0.89 % dose/organ

Q: What about the “% dose/g” value [1, 11] of the same compound?
A: 3.61 ± 0.65 % dose/g

Q: And the “% dose/organ” value [1, 11]?
A: 1.55 ± 0.33 % dose/organ

Q: And the “% dose/g” value [1, 12]?
A: 3.38 ± 0.38 % dose/g

Q: And the “% dose/organ” value [1, 12]?
A: 1.24 ± 0.19 % dose/organ

Q: What about the “% dose/g” value [1, 13] of the same compound?
A: 1.78 ± 0.06 % dose/g

Q: And the “% dose/organ” value [1, 13]?
A: 0.73 ± 0.02 % dose/organ

Q: And the “% dose/g” value [1, 14]?
A: 16.3 ± 4.96 % dose/g

Q: What about the “% dose/organ” value [1, 14] of the same compound?
A: 19.4 ± 3.67 % dose/organ

Q: And the “% dose/g” value [1, 15]?
A: 8.02 ± 0.65 % dose/g

Q: And the “% dose/organ” value [1, 15]?
A: 11.2 ± 1.65 % dose/organ

Q: What about the “% dose/g” value ([1]; Liver, 1 hr after iv injection) of the same compound?
A: 8.10 ± 1.59 % dose/g

Q: And the “% dose/organ” value ([1]; Liver, 1 hr after iv injection)?
A: 9.75 ± 1.79 % dose/organ

Q: What about the “% dose/g” value ([1]; Liver, 2 hr after iv injection) of the same compound?
A: 5.22 ± 0.49 % dose/g

Q: And the “% dose/organ” value ([1]; Liver, 2 hr after iv injection)?
A: 6.34 ± 0.87 % dose/organ

Q: What about the “% dose/g” value ([1]; Lung, 2 min after iv injection) of the same compound?
A: 7.63 ± 0.46 % dose/g

Q: And the “% dose/organ” value ([1]; Lung, 2 min after iv injection)?
A: 1.54 ± 0.16 % dose/organ

Q: What about the “% dose/g” value [1, 16] of the same compound?
A: 2.31 ± 0.42 % dose/g

Q: And the “% dose/organ” value [1, 16]?
A: 0.42 ± 0.07 % dose/organ

Q: What about the “% dose/g” value ([1]; Lung, 1 hr after iv injection) of the same compound?
A: 2.21 ± 0.19 % dose/g

Q: And the “% dose/organ” value ([1]; Lung, 1 hr after iv injection)?
A: 0.40 ± 0.01 % dose/organ

Q: And the “% dose/g” value ([1]; Lung, 2 hr after iv injection)?
A: 1.43 ± 0.03 % dose/g

Q: What about the “% dose/organ” value ([1]; Lung, 2 hr after iv injection) of the same compound?
A: 0.27 ± 0.00 % dose/organ

Q: And the “% dose/g” value [1, 17]?
A: 0.83 ± 0.19 % dose/g

Q: And the “% dose/organ” value [1, 17]?
A: 8.87 ± 2.47 % dose/organ

Q: And the “% dose/g” value [1, 18]?
A: 1.20 ± 0.28 % dose/g

Q: What about the “% dose/organ” value [1, 18] of the same compound?
A: 12.3 ± 2.18 % dose/organ

Q: What about the “% dose/g” value [1, 19] of the same compound?
A: 1.09 ± 0.09 % dose/g

Q: And the “% dose/organ” value [1, 19]?
A: 11.0 ± 0.64 % dose/organ

Q: What about the “% dose/g” value [1, 20] of the same compound?
A: 0.81 ± 0.14 % dose/g

Q: What about the “% dose/organ” value [1, 20] of the same compound?
A: 8.16 ± 1.14 % dose/organ

Q: What about the “% dose/g” value ([1]; Skin, 2 min after iv injection) of the same compound?
A: 0.42 ± 0.06 % dose/g

Q: And the “% dose/organ” value ([1]; Skin, 2 min after iv injection)?
A: 1.68 ± 0.22 % dose/organ

Q: What about the “% dose/g” value [1, 21] of the same compound?
A: 0.98 ± 0.33 % dose/g

Q: What about the “% dose/organ” value [1, 21] of the same compound?
A: 3.86 ± 1.41 % dose/organ

Q: And the “% dose/g” value ([1]; Skin, 1 hr after iv injection)?
A: 0.94 ± 0.06 % dose/g

Q: And the “% dose/organ” value ([1]; Skin, 1 hr after iv injection)?
A: 3.53 ± 0.16 % dose/organ

Q: What about the “% dose/g” value ([1]; Skin, 2 hr after iv injection) of the same compound?
A: 0.82 ± 0.15 % dose/g

Q: And the “% dose/organ” value ([1]; Skin, 2 hr after iv injection)?
A: 3.11 ± 0.48 % dose/organ

Q: What about the “% dose/g” value [1, 22] of the same compound?
A: 4.95 ± 0.78 % dose/g

Q: And the “% dose/organ” value [1, 22]?
A: 0.51 ± 0.09 % dose/organ

Q: And the “% dose/g” value [1, 23]?
A: 1.56 ± 0.28 % dose/g

Q: What about the “% dose/organ” value [1, 23] of the same compound?
A: 0.15 ± 0.03 % dose/organ

Q: And the “% dose/g” value [1, 24]?
A: 1.64 ± 0.13 % dose/g

Q: What about the “% dose/organ” value [1, 24] of the same compound?
A: 0.15 ± 0.04 % dose/organ

Q: And the “% dose/g” value [1, 25]?
A: 1.16 ± 0.07 % dose/g

Q: What about the “% dose/organ” value [1, 25] of the same compound?
A: 0.09 ± 0.01 % dose/organ

Q: What about the “Log P” value [2] of the same compound?
A: 2.77
